Source: ChEMBL document CHEMBL5608141, “Identification of compartment-specific drug sensitivities in CRC organoid-stroma co-cultures” (2024)

Key:
Type in all cases: functional, Homo sapiens
Parameters in all cases: dose or concentration left out as unconfirmed
[1] = test system: Colon cancer organoid; assay: Identification of compartment-specific drug sensitivities in O06 CRC organoid-stroma F06 CAF co-cultures. Organoid is transduced with Lucferase2-P2A-EGFP lentivirus, fibroblast with Renilla-dsRed lentivirus. Dual-Glo Luciferase assay is used to report viability data.
[2] = test system: Colon cancer organoid; assay: Identification of compartment-specific drug sensitivities in O20 CRC organoid-stroma F20 CAF co-cultures. Organoid is transduced with Lucferase2-P2A-EGFP lentivirus, fibroblast with Renilla-dsRed lentivirus. Dual-Glo Luciferase assay is used to report viability data.
[3] = test system: Colon cancer organoid; assay: Identification of compartment-specific drug sensitivities in O14 CRC organoid-stroma F14 CAF co-cultures. Organoid is transduced with Lucferase2-P2A-EGFP lentivirus, fibroblast with Renilla-dsRed lentivirus. Dual-Glo Luciferase assay is used to report viability data.
[4] = Transduced with Lucferase2-P2A-EGFP lentivirus
[5] = Transduced with Renilla-dsRed lentivirus

| SMILES | Cell Viability [1, 4] [%] | Cell Viability [1, 5] [%] | Cell Viability [2, 4] [%] | Cell Viability [2, 5] [%] | Cell Viability [3, 4] [%] | Cell Viability [3, 5] [%] |
| --- | --- | --- | --- | --- | --- | --- |
| Cn1c(C2(NC(=O)c3ccc(NCC4CCCCC4)nc3)CCC2)nc2ccc(/C=C/C(=O)O)cc21 [BI 7656] | 95.6503 | 130.646 | 93.1126 | 134.723 | 93.219 | 83.8542 |
| CC(=O)Nc1c(F)cc(C(=O)N[C@H]2CC[C@H](O)CC2)cc1O[C@@H](C)c1ccccc1 [GSK046] | 141.493 | 157.689 | 118.485 | 118.66 | 96.2623 | 124.481 |
| Cc1c(Nc2ccc(S(=O)(=O)N3CCN(C)CC3)cc2F)nc2ccc(-c3cnn(C4CC4)c3)cn2c1=O | 106.525 | 138.146 | 100.446 | 149.535 | 116.873 | 77.7436 |
| CCOc1ccn(-c2ccc(F)cc2)c(=O)c1C(=O)Nc1ccc(Oc2ccnc(N)c2Cl)c(F)c1 [BMS-777607] | 91.8113 | 94.0587 | 100.48 | 72.8578 | 88.1625 | 100.395 |
| Clc1cc2c(NC3CCCC3)nnc(-c3ccncc3)c2cc1Cl | 131.765 | 133.642 | 149.848 | 128.6 | 104.198 | 96.8835 |
| Clc1cccc(-c2nnnn2Cc2cccnc2)c1Cl | 149.518 | 281.873 | 106.259 | 101.74 | 96.2273 | 101.208 |
| C[C@@H](c1cccc(C#N)c1)n1cc(Cl)cc(C(N)=O)c1=N.Cl | 92.5611 | 127.503 | 64.4613 | 72.4154 | 101.632 | 106.42 |
| CO[C@@H](C)c1c(Nc2ccc([C@@H](N(C)C(=O)C3CCS(=O)(=O)CC3)C(F)(F)F)cc2)cnc2cc(Cl)nn12 [NVS-MALT1-C] | 50.6957 | 73.6522 | 83.7008 | 108.215 | 71.9282 | 88.3744 |
| O=C(N1CCS(=O)(=O)CC1)N1C[C@H](c2ccc(OC(F)(F)F)cc2)C[C@H](c2nc(C3CC3)no2)C1 [BAY-386] | 109.098 | 172.496 | 61.9652 | 114.29 | 96.4412 | 110.483 |
| O=C(NC[C@H](O)CN1CCc2ccccc2C1)c1ccnc(NC2CCC2)c1 | 33.1368 | 110.399 | 43.0801 | 143.569 | 42.6769 | 91.2933 |
| Cl.Cl.c1ccc([C@@H]2C[C@H]2NC2CCNCC2)cc1 | 78.4875 | 97.0217 | 42.8532 | 97.3617 | 85.8382 | 107.738 |
| O=C(c1ccc(F)c(F)c1Nc1ccc(I)cc1F)N1CC(O)([C@@H]2CCCCN2)C1 [COBIMETINIB] | 5.143 | 42.4292 | 4.065 | 77.761 | 13.8076 | 23.8651 |
| O=C1[C@H](Cc2ccc(O)cc2)N2C(=O)CCN(C(=O)NCc3ccccc3)[C@H]2CN1Cc1cccc2ccccc12 | 79.2211 | 124.216 | 90.1159 | 144.616 | 38.6094 | 83.3915 |
| COc1cc(-c2cn([C@H]3CCc4c(F)cccc4N(CC(F)(F)F)C3=O)nn2)ccc1-n1cnc(C)c1 | 62.2519 | 94.2085 | 119.382 | 109.286 | 128.088 | 98.8677 |
| COc1cc2c(NC3CCN(C(C)C)CC3)nc(N3CCC(F)(F)CC3)nc2cc1OCCCN1CCCC1 | 88.0521 | 104.162 | 136.596 | 132.743 | 78.7749 | 75.7418 |
| CC(C)C(=O)Nc1n[nH]c2cc(-c3cccc(NS(=O)(=O)C4CC4)c3)ccc12 | 78.2505 | 111.722 | 85.5363 | 102.387 | 122.353 | 104.553 |
| Nc1nc(NCc2ccccc2)nc(-c2cccc(CO)c2)n1 [ZINC32547799] | 97.3324 | 116.001 | 125.25 | 66.6285 | 98.7801 | 87.8082 |
| CCOCCn1cc(C(=O)Nc2ccc(-n3nc(-c4cccnc4)cc3C(F)(F)F)cn2)ccc1=O [BI 1935] | 87.0785 | 88.003 | 76.3275 | 148.205 | 82.3072 | 94.7961 |
| CCOc1cc2ncc(C#N)c(Nc3ccc(OCc4cccc(F)c4)c(Cl)c3)c2cc1NC(=O)/C=C/CN(C)C [HKI-357] | 16.8896 | 39.6819 | 50.6947 | 47.1207 | 38.7389 | 28.7857 |
| CC(=O)N1CCC(c2ccc(C(=O)NC3=NCCN3)cc2C(F)(F)F)CC1 [BI 0054] | 124.071 | 95.7607 | 121.714 | 122.015 | 111.388 | 98.4803 |
| FC(F)c1nc2ccccc2n1-c1nc(N2CCOCC2)nc(N2CCOCC2)n1 [ZSTK-474] | 29.4296 | 101.088 | 124.253 | 95.7276 | 72.7664 | 74.8211 |
| Cn1c(-c2csc(C3CCN(CC4=NC5N=CC=CC5N4)CC3)n2)nc2ccccc21 (stereo not given) [BAY-070] | 29.934 | 49.5381 | 42.0794 | 84.0468 | 72.3778 | 60.078 |
| CNc1cc(Oc2cc(C(=O)Nc3cc(N4CCN(C)CC4)cc(C(F)(F)F)c3)ccc2C)ncn1 | 72.9479 | 75.3319 | 163.613 | 75.5289 | 198.58 | 101.862 |
| CNC(=O)c1cc(C(=O)N[C@H]2[C@@H]3COC[C@@H]32)cc2c1O[C@@H](CF)[C@@H]2c1ccccc1 [GSK943] | 83.6271 | 130.888 | 107.286 | 108.354 | 96.5907 | 102.587 |
| Cc1noc([C@H]2C[C@@H](c3ccc(C(F)(F)F)cc3)CN(C(=O)N3CCS(=O)(=O)C3)C2)n1 [BAY-448] | 64.3289 | 114.596 | 115.252 | 84.5218 | 114.601 | 94.3368 |
